According to ChEMBL document CHEMBL3272295, “Drugs derived from cannabinoids. 5. delta6a,10a-Tetrahydrocannabinol and heterocyclic analogs containing aromatic side chains” (J Med Chem, 1976):
Where a name gives a salt, the structure may show the parent alone. Active and inactive are the calls of the source. The calls are words filed in the database; no cut-off is given here.

Experiments:
[1] = test system: Rattus norvegicus; experiment: Antihypertensive activity in spontaneously hypertensive rat model assessed as reduction in blood pressure at 30 mg/kg, po after 3 hrs; format: functional; parameters: scale not given: the % may be the effect or the level left
[2] = test system: Rattus norvegicus; experiment: Antipsychotic activity in rat assessed as reduction of methamphetamine-induced hyperactivity at 10 mg/kg, po administered prior to methamphetamine challenge relative to vehicle-treated control; format: functional; parameters: scale not given: the % may be the effect or the level left
[3] = species on record: Rattus norvegicus; experiment: animal or person; format: functional; conditions: Charles River, route oral
Description: Antidiarrheal activity in Charles River rat assessed as inhibition of castor oil-induced diarrhea by measuring protected animals at 0.5 mg/kg, po administered 1 hr prior to castor oil challenge measured after 1 hr relative to vehicle-treated control

[4] = test system: Rattus norvegicus; experiment: Antianxiety activity in Long-Evans rat assessed as reduction in motor activity at 5 mg/kg, po after 2 hrs relative to vehicle-treated control; format: functional; parameters: scale not given: the % may be the effect or the level left
[5] = test system: Rattus norvegicus; experiment: Antipsychotic activity in rat assessed as reduction of methamphetamine-induced hyperactivity at 20 mg/kg, po administered prior to methamphetamine challenge relative to vehicle-treated control; format: functional; parameters: scale not given: the % may be the effect or the level left
[6] = Acute toxicity in po dosed mouse; format: organism-based; conditions: in vivo
[7] = test system: Felis catus; experiment: Hypnotic activity in cat assessed as increase in total sleep time at 0.5 mg/kg administered orally through diet measured for 12 hrs by EEG analysis; format: functional; conditions: route oral
[8] = test system: Felis catus; experiment: Hypnotic activity in cat assessed as increase in non-REM sleep time at 0.5 mg/kg administered orally through diet measured for 12 hrs by EEG analysis; format: functional; conditions: route oral
[9] = test system: Mus musculus; experiment: Analgesic activity in po dosed mouse assessed as inhibition of acetic acid-induced writhing administered 30 mins prior to acetic acid challenge measured after 5 mins for 20 mins; format: functional
[10] = test system: Mus musculus; experiment: Antianxiety activity in albino BALB/cJ mouse assessed as reduction in footshock-induced fighting behavior at 5 mg/kg, po after 30 to 90 mins; format: functional; parameters: scale not given: the % may be the effect or the level left
[11] = test system: Rattus norvegicus; experiment: Antihypertensive activity in spontaneously hypertensive rat model assessed as reduction in blood pressure at 30 mg/kg, po after 24 hrs; format: functional; parameters: scale not given: the % may be the effect or the level left
[12] = test system: Mus musculus; experiment: Antianxiety activity in albino BALB/cJ mouse assessed as reduction in footshock-induced fighting behavior at 10 mg/kg, po after 30 to 90 mins; format: functional; parameters: scale not given: the % may be the effect or the level left
[13] = test system: Rattus norvegicus; experiment: Antihypertensive activity in spontaneously hypertensive rat model assessed as reduction in blood pressure at 10 mg/kg, po after 3 hrs; format: functional; parameters: scale not given: the % may be the effect or the level left
[14] = test system: Rattus norvegicus; experiment: Antihypertensive activity in spontaneously hypertensive rat model assessed as reduction in blood pressure at 10 mg/kg, po after 24 hrs; format: functional; parameters: scale not given: the % may be the effect or the level left
[15] = test system: Rattus norvegicus; experiment: Antipsychotic activity in rat assessed as reduction of methamphetamine-induced hyperactivity at 5 mg/kg, po administered prior to methamphetamine challenge relative to vehicle-treated control; format: functional; parameters: scale not given: the % may be the effect or the level left
[16] = test system: Rhesus monkey; experiment: Antianxiety activity in rhesus monkey assessed as antiagressive behavior at 10 mg/kg, po measured every hour post dosing; format: functional, organism-based; parameters: dose 10 mg/kg; conditions: Macaca mulatta
[17] = test system: Mus musculus; experiment: Analgesic activity in mouse assessed as inhibition of acetic acid-induced writhing at 40 mg/kg, po administered 30 mins prior to acetic acid challenge measured after 5 mins for 20 mins; format: functional
[18] = test system: Rattus norvegicus; experiment: Antidiarrheal activity in Charles River rat assessed as inhibition of castor oil-induced diarrhea by measuring protected animals at 0.1 mg/kg, po administered 1 hr prior to castor oil challenge measured after 1 hr relative to vehicle-treated control; format: functional
[19] = test system: Rattus norvegicus; experiment: Antidiarrheal activity in Charles River rat assessed as inhibition of castor oil-induced diarrhea by measuring protected animals at 0.2 mg/kg, po administered 1 hr prior to castor oil challenge measured after 1 hr relative to vehicle-treated control; format: functional
[20] = test system: Rattus norvegicus; experiment: Antidiarrheal activity in Charles River rat assessed as inhibition of castor oil-induced diarrhea by measuring protected animals at 0.05 mg/kg, po administered 1 hr prior to castor oil challenge measured after 1 hr relative to vehicle-treated control; format: functional
[21] = test system: Canis familiaris; experiment: Antianxiety activity in po dosed dog assessed as ataxia administered as single dose measured up to 24 hrs; format: functional; conditions: Canis lupus familiaris, read-out: MED
[22] = test system: Rhesus monkey; experiment: Antianxiety activity in po dosed rhesus monkey assessed as antiagressive behavior measured every hour post dosing; format: functional; conditions: Macaca mulatta, read-out: MED
[23] = test system: Rattus norvegicus; experiment: Antisecretory activity in Sprague-Dawley rat assessed as decrease in volume at 50 mg/kg, po administered 30 mins prior to pylorus ligation measured after 4 hrs relative to control; format: functional; parameters: scale not given: the % may be the effect or the level left
[24] = test system: Rattus norvegicus; experiment: Antisecretory activity in Sprague-Dawley rat assessed as decrease in acidity at 50 mg/kg, po administered 30 mins prior to pylorus ligation measured after 4 hrs relative to control; format: functional; parameters: scale not given: the % may be the effect or the level left
[25] = test system: Rattus norvegicus; experiment: Antisecretory activity in Sprague-Dawley rat assessed as decrease in pepsin output at 50 mg/kg, po administered 30 mins prior to pylorus ligation measured after 4 hrs relative to control; format: functional; parameters: scale not given: the % may be the effect or the level left
[26] = test system: Rattus norvegicus; experiment: Antisecretory activity in Sprague-Dawley rat assessed as decrease in acid output at 50 mg/kg, po administered 30 mins prior to pylorus ligation measured after 4 hrs relative to control; format: functional; parameters: scale not given: the % may be the effect or the level left
[27] = test system: Rattus norvegicus; experiment: Increase in pepsin concentration in Sprague-Dawley rat at 50 mg/kg, po administered 30 mins prior to pylorus ligation measured after 4 hrs relative to control; format: functional
[28] = test system: Mus musculus; experiment: Antidepressant activity in po dosed mouse assessed as potentiation of DOPA-induced effect administered 4 hrs prior to DOPA challenge; format: functional; conditions: read-out: MED
[29] = test system: Rattus norvegicus; experiment: Antianxiety activity in Long-Evans rat assessed as reduction in motor activity at 10 mg/kg, po after 2 hrs relative to vehicle-treated control; format: functional; parameters: scale not given: the % may be the effect or the level left

| Structure (SMILES) | Activity [1] [%] | inhibition in vivo at 0.5 mg/kg [3] [%] | Activity [4] [%] | LD50 [6] [mg/kg] | Time [7] [min] | Time [8] [min] | ED50 [9] [mg/kg] | Activity [10] [%] | Activity [11] [%] | Activity [12] [%] | Activity [15] [%] | inhibition in vivo at 40 mg/kg [17] [%] | minimal effective dose [21] [mg/kg] | minimal effective dose [22] [mg/kg] | other results |
| --- | --- | --- | --- | --- | --- | --- | --- | --- | --- | --- | --- | --- | --- | --- | --- |
| C#CCN1CCC2=C(C1)c1c(O)cc(C(C)CCCCc3ccc(F)cc3)cc1OC2(C)C (centres undefined) | 0 | 30 | 33 | ≥ 1000 | 61 | 7 | 48 | 0 | 0 |  |  |  |  |  | Activity [2]: 50%; Activity [5]: 70% |
| CC1CCC2=C(C1)c1c(O)cc(C(C)CCCN(C)C)cc1OC2(C)C (centres undefined) | 10 |  | 12 | ≥ 1000 |  |  |  |  | 6 | 38 | 20 | 18 |  |  | Activity [13]: 9%; Activity [14]: 13%; Activity [16]: inactive |
| CCOC(=O)C1(c2ccccc2)CCN(CCC(C#N)(c2ccccc2)c2ccccc2)CC1 [DIPHENOXYLATE HYDROCHLORIDE] |  |  |  |  |  |  |  |  |  |  |  |  |  |  | inhibition in vivo at 0.1 mg/kg [18]: 67%; inhibition in vivo at 0.2 mg/kg [19]: 95%; inhibition in vivo at 0.05 mg/kg [20]: 46% |
| C#CCN1CCC2=C(C1)c1c(OC(=O)CCCN3CCCCC3)cc(C(C)CCCc3ccc(F)cc3)cc1OC2(C)C.Cl (centres undefined) |  | 40 | 87 | 750 | 47 | 121 | 10.3 |  |  | 23 | 62 |  | 0.4 | 1 | Activity [23]: 24.9%; Activity [24]: 42.4%; Activity [25]: 1.9%; Activity [26]: 56.1%; Activity [27]: 32% |
| Br.CC(CCCc1ccc(F)cc1)c1cc(O)c2c(c1)OC(C)(C)C1=C2C2CCN1CC2 (centres undefined) |  | 10 | 23 | ≥ 1000 |  |  |  | 23 |  |  | 4 | 32 | 1 | 1 | minimal effective dose [28]: 20 mg/kg; Activity [29]: 46% |
